Assay results: patent US20250009737A1, “COMPOUNDS AND METHODS FOR THE TARGETED DEGRADATION OF ANDROGEN RECEPTOR” (Arvinas Operations, Inc., priority 2023, published 2025)

What was measured:
CYP1A2 mRNA = CYP1A2 mRNA induction in cryopreserved human hepatocytes; assay type: in vitro ADME; details: positive control inducer; human hepatocytes
Description: (§1) The induction potential of Compound A on CYP enzymes was assessed in cryopreserved human hepatocytes from three donors. Following treatment for with Compound A at concentrations of 0.03-30 μM for 48 hours, mRNA levels for CYP1A2, 2B6, 2C8, 2C9, 2C19, and 3A4 were determined by semiquantitative real-time polymerase chain reaction (PCR). Test article concentrations during 24-hour incubation were determined. The potential of Compound A to cause direct and time-dependent inhibition (TDI) of the activities of CYP1A2, 2B6, 2C8, 2C9, 2C19, 2D6, and 3A4 was evaluated in pooled human liver microsomes (HLM) at 0.2-15 μM. Probe substrate concentrations around Km were used for direction inhibition and initial TDI assays. For TDI assay, Compound A was pre-incubated with pooled HLM with and without NADPH for 30 minutes prior to incubation with a single concentration of probe substrate.

CYP2B6 mRNA = CYP2B6 mRNA induction in cryopreserved human hepatocytes; assay type: in vitro ADME; details: positive control inducer; human hepatocytes
Description: as §1

SMILES | CYP1A2 mRNA Fold induction, PC (CYP1A2 mRNA) | CYP2B6 mRNA Fold induction, PC (CYP2B6 mRNA)
COc1ccc2[nH]c([S+]([O-])Cc3ncc(C)c(OC)c3C)nc2c1 (centres unmarked) [Omeprazole, reference compound] | 77-88 Fold | –
CCC1(c2ccccc2)C(=O)NC(=O)NC1=O [Phenobarbital, reference compound] | – | 14-25 Fold
